Where two headings read alike, the source gives them in different places. Starred links: 1 amine or outer side, 2 acyl side, 3 side chain; linkers in the order of their positions; H or OH if unused. Non-standard residues stand in square brackets, D forms with d. Residues, ends and D or L forms follow the SMILES beside them. *: point of attachment. Oic = O=C(O)[C@@H]1C[C@@H]2CCCC[C@@H]2N1; Phe(4-Cl) = N[C@@H](Cc1ccc(Cl)cc1)C(=O)O; γGlu = O=C(O)[C@H](CCC(=O)[*:2])N[*:1]; 1Nal = N[C@@H](Cc1cccc2ccccc12)C(=O)O; NMehArg = CN[C@@H](CCCCNC(=N)N)C(=O)O; NMeR = CN[C@@H](CCCNC(=N)N)C(=O)O; Palmitoyl = CCCCCCCCCCCCCCCC(=O)*; Tridecanoyl = CCCCCCCCCCCCC(=O)*; hArg = N=C(N)NCCCC[C@H](N)C(=O)O; Cha = N[C@@H](CC1CCCCC1)C(=O)O; αMeL = CC(C)C[C@](C)(N)C(=O)O; β3hP = O=C(O)C[C@@H]1CCCN1; Pip = O=C(O)[C@@H]1CCCCN1; Nle = CCCC[C@H](N)C(=O)O; Orn = NCCC[C@H](N)C(=O)O; AEEA = NCCOCCOCC(=O)O; Aib = CC(C)(N)C(=O)O
Target: T1, human APJ receptor (Homo sapiens, UniProt P35414)
T1 construct: expressed in transfected cells
T1 sequence (P35414 1-380): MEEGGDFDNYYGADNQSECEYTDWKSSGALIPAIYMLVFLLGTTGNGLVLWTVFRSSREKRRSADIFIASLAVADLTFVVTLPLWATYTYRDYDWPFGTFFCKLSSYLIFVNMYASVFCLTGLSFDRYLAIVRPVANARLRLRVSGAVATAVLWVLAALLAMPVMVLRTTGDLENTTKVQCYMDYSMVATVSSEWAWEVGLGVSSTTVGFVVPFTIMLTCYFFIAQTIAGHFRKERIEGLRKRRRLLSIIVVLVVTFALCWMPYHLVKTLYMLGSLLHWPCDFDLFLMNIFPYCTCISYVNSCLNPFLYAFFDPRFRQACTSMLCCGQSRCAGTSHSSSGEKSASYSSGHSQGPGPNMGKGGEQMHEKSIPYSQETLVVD
Test: [35S] GTPγS assay, human APJ receptor
Type: biochemical
Method: The membranes were incubated with modified peptides in the assay buffer. […] Bound [^35S] GTPγS was separated from free radiolabel by filtration. The filter bound radioactivity was determined by liquid scintillation counting.

| Structure (SMILES) | EC50 (human APJ receptor) [nM] | further results |
| --- | --- | --- |
| CCCCCCCCCCCCC(=O)N[C@@H](CCC(=O)NCCOCCOCC(=O)NCCOCCOCC(=O)N[C@H](CCC(N)=O)C(=O)N[C@@H](CCCCNC(=N)N)C(=O)N1CCC[C@H]1C(=O)N[C@H](CCCNC(=N)N)C(=O)N[C@@H](CC1CCCCC1)C(=O)N[C@@H](CO)C(=O)N[C@@H](Cc1c[nH]cn1)C(=O)N[C@@H](CCCCN)C(=O)NCC(=O)N1[C@H](C(=O)N[C@@H](CCCC)C(=O)N2CCC[C@H]2C(=O)N[C@@H](Cc2cccc3ccccc23)C(=O)O)C[C@@H]2CCCC[C@@H]21)C(=O)O [compound 367] ({Tridecanoyl-γGlu-AEEA-AEEA}-[dQ][hArg]P[dR][Cha]SHKG[Oic][Nle]P[1Nal]-OH) | – | EC50 (Table 16): 26.4 nM |
| CCCC[C@H](NC(=O)[C@@H]1CCCN1C(=O)CNC(=O)[C@H](CCCCN)NC(=O)[C@H](Cc1c[nH]cn1)NC(=O)[C@H](CO)NC(=O)[C@H](CC(C)C)NC(=O)[C@H](CCCCNC(=N)N)N(C)C(=O)[C@H](CCCNC(=N)N)NC(=O)[C@H](CCC(N)=O)NC(C)=O)C(=O)N1CCC[C@H]1C(=O)N[C@@H](Cc1ccc(Cl)cc1)C(=O)O [compound 73] (Ac-QR[NMehArg]LSHKGP[Nle]P[Phe(4-Cl)]-OH) | 1.81 | – |
| CCCC[C@H](NC(=O)[C@@H]1C[C@@H]2CCCC[C@@H]2N1C(=O)CNC(=O)[C@H](CCCCN)NC(=O)[C@H](Cc1c[nH]cn1)NC(=O)[C@H](CO)NC(=O)[C@H](CC1CCCCC1)NC(=O)[C@H](CCCCNC(=N)N)NC(=O)[C@@H]1CCCN1C(=O)[C@H](CCCNC(=N)N)NC(=O)[C@H](CCC(N)=O)NC(=O)[C@H](CCCNC(=N)N)NC(C)=O)C(=O)N1CCC[C@H]1C(=O)N[C@@H](Cc1ccc(Cl)cc1)C(=O)O [compound 17] (Ac-RQRP[hArg][Cha]SHKG[Oic][Nle]P[Phe(4-Cl)]-OH) | – | EC50: 0.171 nM |

Further lines, with some results ahead:

| EC50 (human APJ receptor) [nM] | Structure (SMILES) | further results |
| --- | --- | --- |
| 0.165 | CCCCCCCCCCCCCCCC(=O)N[C@@H](CCC(=O)NCCOCCOCC(=O)NCCOCCOCC(=O)N[C@H](CCC(N)=O)C(=O)N[C@@H](CCCNC(=N)N)C(=O)N1CCC[C@H]1C(=O)N(C)[C@@H](CCCNC(=N)N)C(=O)N[C@@](C)(CC(C)C)C(=O)N[C@@H](CO)C(=O)N[C@@H](Cc1c[nH]cn1)C(=O)N[C@@H](CCCN)C(=O)NCC(=O)N1[C@H](C(=O)N[C@@H](CCCC)C(=O)N2CCC[C@H]2CC(=O)N[C@@H](Cc2ccc(Cl)cc2)C(=O)O)C[C@@H]2CCCC[C@@H]21)C(=O)O [compound 634] ({Palmitoyl-γGlu-AEEA-AEEA}-[dQ]RP[NMeR][αMeL]SH[Orn]G[Oic][Nle][β3hP][Phe(4-Cl)]-OH) | – |
| 1.4 | CCCCCCCCCCCCCCCC(=O)N[C@@H](CCC(=O)NCCOCCOCC(=O)NCCOCCOCC(=O)N[C@H](CCC(N)=O)C(=O)N[C@@H](CCCNC(=N)N)C(=O)N1CCC[C@H]1C(=O)N(C)[C@@H](CCCNC(=N)N)C(=O)N[C@@H](CC1CCCCC1)C(=O)N[C@@H](CO)C(=O)N[C@@H](Cc1c[nH]cn1)C(=O)N[C@@H](CCCCN)C(=O)NCC(=O)N1CCCC[C@H]1C(=O)NC(C)(C)C(=O)N[C@@H](Cc1ccc(Cl)cc1)C(=O)O)C(=O)O [compound 581] ({Palmitoyl-γGlu-AEEA-AEEA}-[dQ]RP[NMeR][Cha]SHKG[Pip][Aib][Phe(4-Cl)]-OH) | – |
| 1.66 | CCCCCCCCCCCCCCCC(=O)N[C@@H](CCC(=O)NCCOCCOCC(=O)NCCOCCOCC(=O)N[C@H](CCC(N)=O)C(=O)N[C@@H](CCCNC(=N)N)C(=O)N1CCC[C@H]1C(=O)N(C)[C@@H](CCCNC(=N)N)C(=O)N[C@@H](CC1CCCCC1)C(=O)N[C@@H](CO)C(=O)N[C@@H](Cc1c[nH]cn1)C(=O)N[C@@H](CCCCN)C(=O)NCC(=O)N1CCC[C@H]1CC(=O)N[C@@H](CCCC)C(=O)N[C@@H](Cc1ccc(Cl)cc1)C(=O)O)C(=O)O [compound 613] ({Palmitoyl-γGlu-AEEA-AEEA}-[dQ]RP[NMeR][Cha]SHKG[β3hP][Nle][Phe(4-Cl)]-OH) | – |

Reference: patent publication US11807693B2 (priority 2014, dated 2023)
